Laboratory results taken from patent US12281102B2, “Inhibitors of APOL1 and methods of using same” (Vertex Pharmaceuticals Incorporated, priority 2020, dated 2025).
pIC50: −log10 of the molar value.

What follows are compounds tested against T1, G1 APOL1 (Homo sapiens, UniProt O14791, I384M/S342G) (assay: Acute APOL1 Thallium Assay with inducible stable clones of HEK 293 cells). Conditions: HEK 293 T-Rex inducible stable clone expressing G1 APOL1; read-out: Thallium Assay (IC50).
T1 construct: expressed in transfected cells
T1 sequence (O14791 28-398 S342G/I384M): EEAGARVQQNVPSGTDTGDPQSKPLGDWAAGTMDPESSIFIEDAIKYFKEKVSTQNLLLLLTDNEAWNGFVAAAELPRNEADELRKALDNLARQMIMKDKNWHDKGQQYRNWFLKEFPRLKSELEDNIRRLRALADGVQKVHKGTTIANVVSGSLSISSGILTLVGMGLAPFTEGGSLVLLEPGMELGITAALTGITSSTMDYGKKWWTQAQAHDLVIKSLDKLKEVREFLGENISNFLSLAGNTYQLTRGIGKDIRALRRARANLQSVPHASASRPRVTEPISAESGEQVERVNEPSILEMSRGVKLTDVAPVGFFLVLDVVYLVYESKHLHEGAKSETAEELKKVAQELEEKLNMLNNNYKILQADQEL
Type: cell-based
Excerpt: Acute APOL1 Thallium Assay with Inducible Stable Clones of HEK 293 Cells
Apolipoprotein L1 (APOL1) proteins form potassium-permeable cation pores in the plasma membrane. APOL1 risk variants (G1 and G2) induce greater potassium flux than G0 in HEK293 cells. This assay exploits the permeability of thallium (T1+) through ligand-gated potassium channels. The dye produces a bright fluorescent signal upon binding to T1+ conducted through potassium channels. The intensity of the T1+ signal is proportional to the number of potassium channels in the open state. Therefore, it provides a functional indication of the potassium channel activities. During the initial dye-loading step, the T1+ indicator dye as an acetoxymethyl (AM) ester enters the cells through passive diffusion. Cytoplasm esterases cleave the AM ester and relieve its active thallium-sensitive form. The cells are then stimulated with T1+. The increase of fluorescence in the assay represents the influx of T1+ into the cell specifically through the potassium channel (i.e. through APOL1 pores), providing a functional measurement of potassium channel/pore activity. The Thallium assay is conducted with cells expressing G1 APOL1.
APOL1 Cell Line (HEK T-Rex Stable Inducible Cell Line)
• HEK T-Rex System • Tetracycline (Tet) inducible mammalian expression system. • Stably express the Tet repressor to regulate transcription. • Expression under the full-length CMV promoter. • APOL1 stable inducible cell line Clone used: G1 DC3.25 Tissue Culture Media Cell Culture Medium • DMEM+10% FBS+P/S+5 μg/mL blasticidin+1 μg/mL puromycin. • 500 mL DMEM+55 mL FBS+5 mL P/S+280 μL blasticidin S HCl (10 mg/mL)+56 μL puromycin (10 mg/mL). Cell Assay Medium • DMEM with 2% FBS+penicillin streptomycin. Reagents:
Instruments and Equipment • Nuaire cell culture hood, Cat. No. 540-600 • 37° C./5% CO2 incubator link to robotic arm, Liconic: STX110 • Molecular Devices FLIPR^Tetra High throughput cellular screening system, Cat. No. FT0324, Molecular Devices • ThermoFisher MultiDrop 384, Cat. No. 5840300 • Biotek Microfill, Cat. No. ASF1000A-4145 • BioRad TC10 cell counter, Cat. No. 145-0010 Assay Procedures Cells Scaled Up from Frozen Vials • APOL1 G1 3.25 (HEK293 T-Rex) frozen vials: 5 million cells per vial • Step 1, Day 1: Defrost frozen vial into T-225. • Step 2, Day 5: (when 85% confluent): Split one T-225 at 3×10^6 cells per flask. • Step 3, Day 8: Splits cells to set up for the assay plates as described below. Cell Culture
T-Rex APOL1 HEK cells are split twice per week to keep the confluence state below 85% of the culture flask surface area. Cells can be kept until passage 25.
• DMEM high glucose+10% FBS, +P/S, +5 μg/mL blasticidin, +1 μg/mL puromycin. • 500 mL DMEM, +55 mL FBS, +5 mL P/S, +280 μL blasticidin 10 mg/mL, +56 μL Puromycin 10 mg/mL. Assay Media • Opti-MEM reduced serum medium from Invitrogen. Day 1 Preparation of Cell Assay Plates • Culture medium is removed from the x cm^2 T-flask by aspiration. • The cell monolayer is rinsed with PBS 1× at room temperature. PBS is removed by aspiration. • Cells are trypsinized using Trypsin. • The flasks are incubated at room temperature for 2-3 minutes. • Complete DMEM medium is then added. Cell suspension is then transferred to a 50 mL Falcon polypropylene tube. • Cells are then counted using a BioRad TC10 cell counter and the required amount of cells are centrifuged at 1200 RPM for 5 minutes. Required amount is 1.3×10^6 cells/mL APOL1 T-Rex HEK cells. • The pellet is suspended in the assay medium. • Using the MultiDrop, add 20 μL to each well (corresponds to 26000 cells total per well) of a 384-well black, transparent, flat bottom Poly-D coated plate. • Tetracycline as prepared in the following section is added to the cells before plating to induce APOL1 expression. • Plates are left at room temperature for 20 to 30 minutes before incubation at 37° C. and 5% CO2. […]

SMILES	pIC50
NC1CC(c2c(-c3ccc(F)cc3)[nH]c3c(F)cc(C(F)(F)F)cc23)C1 (mixture of isomers) [Compound 1, 3-[7-fluoro-2-(4-fluorophenyl)-5-(trifluoromethyl)-1H-indol-3-yl]cyclobutanamine]	< 6.00
O=C(CCO)NC1CC(c2c(-c3ccc(F)cc3)[nH]c3c(F)cc(C(F)(F)F)cc23)C1 (mixture of isomers) [Compound 2, N-[3-[7-fluoro-2-(4-fluorophenyl)-5-(trifluoromethyl)-1H-indol-3-yl]cyclobutyl]-3-hydroxy-propanamide]	6.00 to 6.60
CC(C)(O)C(=O)NC1CC(c2c(-c3ccc(F)cc3)[nH]c3c(F)cc(C(F)(F)F)cc23)C1 (mixture of isomers) [Compound 3, N-[3-[7-fluoro-2-(4-fluorophenyl)-5-(trifluoromethyl)-1H-indol-3-yl]cyclobutyl]-2-hydroxy-2-methyl-propanamide]	6.00 to 6.60
Cc1cccc(-c2[nH]c3c(F)cc(F)cc3c2C2CC(N)C2)c1 (mixture of isomers) [Compound 5, 3-[5,7-difluoro-2-(m-tolyl)-1H-indol-3-yl]cyclobutanamine]	6.00 to 6.60
Cc1cc(-c2[nH]c3c(F)cc(F)cc3c2C2CC(N)C2)ccc1F (mixture of isomers) [Compound 11, 3-[5,7-difluoro-2-(4-fluoro-3-methyl-phenyl)-1H-indol-3-yl]cyclobutanamine]	6.00 to 6.60
CC1(C(=O)NC2CC(Cc3c(-c4ccc(F)cc4)[nH]c4c(F)cc(F)cc34)C2)CCNC1=O (mixture of isomers) [Compound 169]	< 6.00
CC(CO)NCC1CC(c2c(-c3ccc(F)cc3)[nH]c3c(F)cc(F)cc23)C1 (mixture of isomers) [Compound 378]	6.00 to 6.60
CC(CC(=O)N[C@H]1C[C@@H](c2c(-c3ccc(F)cc3)[nH]c3c(F)cc(F)cc32)C1)N1CCOCC1 (mixture of isomers) [Compound 36]	< 6.00
CC(C(=O)N[C@H]1C[C@@H](c2c(-c3ccc(F)cc3)[nH]c3c(F)cc(F)cc32)C1)n1ccnc1 (mixture of isomers) [Compound 40]	< 6.00
CC(NS(C)(=O)=O)C(=O)N[C@H]1C[C@@H](c2c(-c3ccc(F)cc3)[nH]c3c(F)cc(F)cc32)C1 (mixture of isomers) [Compound 55]	< 6.00
CC1(C(=O)N[C@H]2C[C@@H](c3c(-c4ccc(F)cc4)[nH]c4c(F)cc(F)cc43)C2)CCC(=O)NC1 (mixture of isomers) [Compound 66]	< 6.00
CC(C(=O)N[C@H]1C[C@@H](c2c(-c3ccc(F)cc3)[nH]c3c(F)cc(F)cc32)C1)N(C)C (mixture of isomers) [Compound 77]	< 6.00
CC1(C(=O)N[C@H]2C[C@H](c3c(-c4ccc(F)cc4)[nH]c4c(F)cc(F)cc43)C2)CCC(=O)NC1 (mixture of isomers) [Compound 97]	< 6.00
CC(CC(=O)N[C@H]1C[C@H](c2c(-c3ccc(F)cc3)[nH]c3c(F)cc(F)cc32)C1)N1CCOCC1 (mixture of isomers) [Compound 102]	< 6.00
CC(C(=O)N[C@H]1C[C@H](c2c(-c3ccc(F)cc3)[nH]c3c(F)cc(F)cc32)C1)n1ccnc1 (mixture of isomers) [Compound 105]	< 6.00
CC(C(=O)N[C@H]1C[C@H](c2c(-c3ccc(F)cc3)[nH]c3c(F)cc(F)cc32)C1)N(C)C (mixture of isomers) [Compound 111]	< 6.00
CC(NS(C)(=O)=O)C(=O)NC[C@H]1C[C@@H](c2c(-c3ccc(F)cc3)[nH]c3c(F)cc(F)cc32)C1 (mixture of isomers) [Compound 242]	< 6.00
CC(C(=O)NC[C@H]1C[C@@H](c2c(-c3ccc(F)cc3)[nH]c3c(F)cc(F)cc32)C1)N(C)C (mixture of isomers) [Compound 281]	< 6.00
CC1(C(=O)NC[C@H]2C[C@@H](c3c(-c4ccc(F)cc4)[nH]c4c(F)cc(F)cc43)C2)CCC(=O)NC1 (mixture of isomers) [Compound 306]	< 6.00
CC(CC(=O)NC[C@H]1C[C@@H](c2c(-c3ccc(F)cc3)[nH]c3c(F)cc(F)cc32)C1)N1CCOCC1 (mixture of isomers) [Compound 318]	< 6.00
COCC(C)NS(=O)(=O)NC[C@H]1C[C@H](c2c(-c3ccc(F)cc3)[nH]c3c(F)cc(F)cc32)C1 (mixture of isomers) [Compound 342]	< 6.00
